Measured values as given in ChEMBL document CHEMBL4387706, “Discovery of Novel Spiroindoline Derivatives as Selective Tankyrase Inhibitors” (J Med Chem, 2019).
Calls of active or inactive are those of the source. The calls are words filed in the database; no cut-off is given here.

Assays:
[1] = species: Homo sapiens; experiment: Effect on hippo signaling protein in human COLO320DM cells assessed as change in CYR61 expression at 0.033 to 1 uM measured after 48 hrs by RT-PCR analysis; format: cell-based
[2] = molecular target: Tankyrase 1/2 (Homo sapiens) (UniProt Q9H2K2+O95271); experiment: Inhibition of TNKS/TNKS2-mediated beta-catenin signaling in human COLO320DM cells assessed as down regulation of TCF7 mRNA expression at 0.033 to 1 uM measured after 48 hrs by RT-PCR analysis; format: cell-based
[3] = test system: COLO 320DM; experiment: Antitumor activity against human COLO320DM cells xenografted in mouse assessed as tumor growth inhibition at 300 mg/kg, ip administered twice daily for 11 days relative to control; format: functional; conditions: 264 h, read-out: TGI
[4] = molecular target: Cannabinoid receptor 2 (Homo sapiens) (UniProt P34972); experiment: Displacement of [3H]WIN55212-2 from full-length recombinant human CB2 receptor expressed in human Chem1 cells at 10 uM measured after 90 mins by scintillation counting method relative to control; format: cell-based
Cannabinoid receptor 2 (Homo sapiens), sequence (P34972 whole entry): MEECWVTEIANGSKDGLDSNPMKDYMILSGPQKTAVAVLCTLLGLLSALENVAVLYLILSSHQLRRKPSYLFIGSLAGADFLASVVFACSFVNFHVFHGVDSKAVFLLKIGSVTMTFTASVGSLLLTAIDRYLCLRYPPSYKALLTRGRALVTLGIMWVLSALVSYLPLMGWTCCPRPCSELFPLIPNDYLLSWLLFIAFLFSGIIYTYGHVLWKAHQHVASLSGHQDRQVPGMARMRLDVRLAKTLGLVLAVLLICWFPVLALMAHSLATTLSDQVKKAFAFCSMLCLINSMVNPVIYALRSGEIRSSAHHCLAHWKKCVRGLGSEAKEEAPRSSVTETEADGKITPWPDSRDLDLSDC

[5] = molecular target: Sodium-dependent serotonin transporter (Homo sapiens) (UniProt P31645); experiment: Displacement of [3H]paroxetine from full-length recombinant human SET receptor expressed in HEK293 cells at 10 uM measured after 60 mins by scintillation counting method relative to control; format: cell-based
Sodium-dependent serotonin transporter (Homo sapiens), sequence (P31645 whole entry, looked up): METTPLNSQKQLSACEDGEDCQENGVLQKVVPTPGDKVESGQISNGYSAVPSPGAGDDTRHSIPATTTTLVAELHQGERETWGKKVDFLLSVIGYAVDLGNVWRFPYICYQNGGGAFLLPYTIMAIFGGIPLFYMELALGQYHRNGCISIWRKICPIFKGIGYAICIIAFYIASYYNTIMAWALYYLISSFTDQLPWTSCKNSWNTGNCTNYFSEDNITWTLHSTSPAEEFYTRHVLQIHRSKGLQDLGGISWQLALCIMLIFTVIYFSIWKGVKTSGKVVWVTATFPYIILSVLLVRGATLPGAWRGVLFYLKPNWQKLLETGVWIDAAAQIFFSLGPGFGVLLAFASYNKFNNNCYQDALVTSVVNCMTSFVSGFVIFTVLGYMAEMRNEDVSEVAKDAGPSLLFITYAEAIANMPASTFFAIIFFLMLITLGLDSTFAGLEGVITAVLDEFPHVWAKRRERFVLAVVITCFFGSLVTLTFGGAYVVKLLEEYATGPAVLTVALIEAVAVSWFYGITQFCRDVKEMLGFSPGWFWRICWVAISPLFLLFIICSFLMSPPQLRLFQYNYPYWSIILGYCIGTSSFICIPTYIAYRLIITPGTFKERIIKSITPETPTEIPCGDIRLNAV

[6] = species: Rattus norvegicus; experiment: Displacement of [125I]a-dendrotoxin from voltage-gated potassium channel in Wistar rat cerebral cortex at 10 uM measured after 60 mins by scintillation counting method relative to control
[7] = molecular target: T1, Tankyrase 1/2 (Homo sapiens, UniProt Q9H2K2+O95271); conditions: hek293
T1 sequence (Q9H2K2 whole entry): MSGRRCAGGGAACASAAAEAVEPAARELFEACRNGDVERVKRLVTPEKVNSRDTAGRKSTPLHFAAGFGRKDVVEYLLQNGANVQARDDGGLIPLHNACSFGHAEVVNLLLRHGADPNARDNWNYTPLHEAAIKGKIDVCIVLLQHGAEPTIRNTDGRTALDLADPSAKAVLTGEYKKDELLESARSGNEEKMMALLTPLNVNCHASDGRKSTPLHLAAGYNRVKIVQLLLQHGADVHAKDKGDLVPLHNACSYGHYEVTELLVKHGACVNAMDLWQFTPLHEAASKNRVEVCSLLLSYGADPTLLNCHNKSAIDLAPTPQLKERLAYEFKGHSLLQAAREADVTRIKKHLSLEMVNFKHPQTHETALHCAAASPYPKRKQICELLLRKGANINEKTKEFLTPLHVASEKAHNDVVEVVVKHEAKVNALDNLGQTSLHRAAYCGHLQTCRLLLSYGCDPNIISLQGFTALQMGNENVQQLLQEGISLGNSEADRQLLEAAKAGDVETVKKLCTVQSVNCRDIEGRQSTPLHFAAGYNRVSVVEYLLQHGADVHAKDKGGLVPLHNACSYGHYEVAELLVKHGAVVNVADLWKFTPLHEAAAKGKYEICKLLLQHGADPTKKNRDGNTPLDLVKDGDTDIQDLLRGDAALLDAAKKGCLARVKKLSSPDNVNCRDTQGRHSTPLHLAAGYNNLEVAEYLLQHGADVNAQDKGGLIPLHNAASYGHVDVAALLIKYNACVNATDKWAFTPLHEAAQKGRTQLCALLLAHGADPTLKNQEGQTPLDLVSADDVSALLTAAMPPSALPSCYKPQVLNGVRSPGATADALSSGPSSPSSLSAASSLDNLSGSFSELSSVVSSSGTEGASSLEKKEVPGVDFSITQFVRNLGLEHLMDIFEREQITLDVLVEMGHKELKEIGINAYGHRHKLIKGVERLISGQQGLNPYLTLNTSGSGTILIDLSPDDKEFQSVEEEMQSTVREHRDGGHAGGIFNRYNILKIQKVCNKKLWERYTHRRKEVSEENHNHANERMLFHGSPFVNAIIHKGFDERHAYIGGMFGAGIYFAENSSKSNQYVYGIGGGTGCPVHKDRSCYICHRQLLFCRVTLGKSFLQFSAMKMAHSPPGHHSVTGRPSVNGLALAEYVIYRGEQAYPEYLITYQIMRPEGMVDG
T1 sequence (O95271 whole entry): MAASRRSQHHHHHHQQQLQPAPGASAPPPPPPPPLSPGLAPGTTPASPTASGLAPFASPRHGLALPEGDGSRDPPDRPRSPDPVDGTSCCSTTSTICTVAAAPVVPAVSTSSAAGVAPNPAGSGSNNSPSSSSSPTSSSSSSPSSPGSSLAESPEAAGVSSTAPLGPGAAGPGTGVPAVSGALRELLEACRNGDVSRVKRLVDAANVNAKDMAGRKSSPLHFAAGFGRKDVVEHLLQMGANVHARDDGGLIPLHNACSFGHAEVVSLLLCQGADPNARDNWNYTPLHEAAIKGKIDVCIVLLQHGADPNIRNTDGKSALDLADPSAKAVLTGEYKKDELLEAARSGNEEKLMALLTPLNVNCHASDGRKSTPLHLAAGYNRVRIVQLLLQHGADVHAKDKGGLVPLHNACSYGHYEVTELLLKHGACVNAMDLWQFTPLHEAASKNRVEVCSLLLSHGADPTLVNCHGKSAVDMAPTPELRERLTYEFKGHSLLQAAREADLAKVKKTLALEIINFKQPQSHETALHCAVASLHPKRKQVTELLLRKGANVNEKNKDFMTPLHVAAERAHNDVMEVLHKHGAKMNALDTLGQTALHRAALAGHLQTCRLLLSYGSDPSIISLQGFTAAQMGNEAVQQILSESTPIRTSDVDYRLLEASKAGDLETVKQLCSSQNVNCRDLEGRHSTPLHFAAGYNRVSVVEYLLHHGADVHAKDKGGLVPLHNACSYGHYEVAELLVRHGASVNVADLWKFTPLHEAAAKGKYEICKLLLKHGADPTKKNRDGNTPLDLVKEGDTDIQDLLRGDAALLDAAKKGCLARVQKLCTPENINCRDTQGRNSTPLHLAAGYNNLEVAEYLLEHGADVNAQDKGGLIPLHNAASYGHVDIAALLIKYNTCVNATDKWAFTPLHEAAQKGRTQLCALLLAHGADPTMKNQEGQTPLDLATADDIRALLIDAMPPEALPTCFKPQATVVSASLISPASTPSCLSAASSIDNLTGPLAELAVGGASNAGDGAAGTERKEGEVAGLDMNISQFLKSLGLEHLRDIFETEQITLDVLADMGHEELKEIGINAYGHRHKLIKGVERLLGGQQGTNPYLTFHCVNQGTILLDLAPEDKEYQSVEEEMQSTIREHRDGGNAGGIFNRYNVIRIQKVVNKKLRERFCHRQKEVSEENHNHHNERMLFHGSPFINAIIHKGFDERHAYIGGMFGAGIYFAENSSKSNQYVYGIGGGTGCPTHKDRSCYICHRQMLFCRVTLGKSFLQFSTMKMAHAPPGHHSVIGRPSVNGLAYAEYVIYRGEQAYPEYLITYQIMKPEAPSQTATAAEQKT
Description: Inhibition of TNKS/TNKS2 (unknown origin) expressed in HEK293 cells assessed as reduction in Wnt-signaling measured after 24 hrs by TCF-luciferase reporter gene assay

SMILES | Activity [1] | inhibition [2] | inhibition in vivo at 300 mg/kg [3] [%] | inhibition [4] [%] | inhibition [5] [%] | inhibition [6] [%] | IC50 [7] [µM]
O=c1[nH]c(N2CCC3(CC2)CN(CCO)c2cc(F)cc(F)c23)nc2c1CCCC2 | inactive | Active | 51.9 | > 20 | > 20 | > 20 | 
COc1ccccc1N1CCN(c2nc3c(c(=O)[nH]2)CCCC3)CC1 |  |  |  |  |  |  | 0.0429
